Source: ChEMBL document CHEMBL2401677, “2-Aminothiazole based P2Y(1) antagonists as novel antiplatelet agents” (Bioorg Med Chem Lett, 2013)

System: not listed separately
Assay: Protein binding in human serum
Format: ADME, cell-free
Conditions: read-out: PB

Row | fraction unbound | SMILES
1 | 0.001 | CN(C)CC(C)(C)COc1cccc(-c2sc(Nc3cccnc3Oc3ccccc3C(C)(C)C)nc2C(F)(F)F)c1

System: not listed separately
Assay: Clearance in rat at 5 mg/kg, iv
Format: ADME, organism-based
Set-up: dose 5 mg/kg, route intravenous
Conditions: in vivo

Row | clearance [mL/min/kg] | SMILES
2 | 6.7 | CN(C)CC(C)(C)COc1cccc(-c2sc(Nc3cccnc3Oc3ccccc3C(C)(C)C)nc2C(F)(F)F)c1

System: not listed separately
Assay: Oral bioavailability in rat
Format: ADME, organism-based
Conditions: in vivo

Row | bioavailability [%] | SMILES
3 | 27 | CN(C)CC(C)(C)COc1cccc(-c2sc(Nc3cccnc3Oc3ccccc3C(C)(C)C)nc2C(F)(F)F)c1

System: not listed separately
Assay: Antiplatelet activity in human platelet rich plasma assessed as inhibition of ADP-induced platelet aggregation at 10 uM relative to control
Format: functional
Conditions: not given

Row | SMILES | inhibition at 10 µM [%]
4 | CC(C)(C)c1ccccc1Oc1ncccc1Nc1nc(C(F)(F)F)c(-c2ccc(C#N)cc2)s1 | 79
5 | CC(C)(C)c1ccccc1Oc1ncccc1Nc1nc(C(C)(C)C)c(-c2ccccc2)s1 | 86
6 | CN(C)C(=O)c1nc(Nc2cccnc2Oc2ccccc2C(C)(C)C)sc1-c1ccccc1 | 100
7 | COc1cccc(-c2sc(Nc3cccnc3Oc3ccccc3C(C)(C)C)nc2C(F)(F)F)c1 | 41
8 | CC(C)(C)c1ccccc1Oc1ncccc1Nc1nc(C(F)(F)F)c(-c2ccccc2F)s1 | 41
9 | CC(C)(C)c1ccccc1Oc1ncccc1Nc1ncc(-c2ccccc2)s1 | 87
10 | CC(C)(C)c1ccccc1Oc1ncccc1Nc1nc(C(F)(F)F)c(-c2cccc(O)c2)s1 | 98
11 | CC(C)(C)c1ccccc1Oc1ncccc1Nc1nc(C(F)(F)F)c(-c2ccccc2)s1 | 61
12 | Cc1ccc(-c2sc(Nc3cccnc3Oc3ccccc3C(C)(C)C)nc2C(F)(F)F)cc1 | 32
13 | CCc1nc(Nc2cccnc2Oc2ccccc2C(C)(C)C)sc1-c1ccccc1 | 78
14 | Cc1ccccc1-c1sc(Nc2cccnc2Oc2ccccc2C(C)(C)C)nc1C(F)(F)F | 54
15 | Cc1sc(Nc2cccnc2Oc2ccccc2C(C)(C)C)nc1C(F)(F)F | 96
16 | CC(C)(C)c1ccccc1Oc1ncccc1Nc1nc(C(F)(F)F)c(-c2ccccc2O)s1 | 99
17 | CC(C)(C)c1ccccc1Oc1ncccc1Nc1nc(C(F)(F)F)c(-c2ccc(OC(F)(F)F)cc2)s1 | 85
18 | CC(C)(C)c1ccccc1Oc1ncccc1Nc1nc(C(F)(F)F)c(C#N)s1 | 101
19 | CN(C)CC(C)(C)COc1cccc(-c2sc(Nc3cccnc3Oc3ccccc3C(C)(C)C)nc2C(F)(F)F)c1 | 17
20 | CCOC(=O)c1sc(Nc2cccnc2Oc2ccccc2C(C)(C)C)nc1C(F)(F)F | 50
21 | CC(C)(C)c1ccccc1Oc1ncccc1Nc1nc(C(C)(C)CC(=O)O)c(-c2ccccc2)s1 | 89
22 | COc1ccc(-c2sc(Nc3cccnc3Oc3ccccc3C(C)(C)C)nc2C(F)(F)F)cc1 | 30
23 | Cc1noc(-c2sc(Nc3cccnc3Oc3ccccc3C(C)(C)C)nc2C(F)(F)F)n1 | 56

System: not listed separately
Assay: Antiplatelet activity in human platelet rich plasma assessed as inhibition of ADP-induced platelet aggregation
Format: functional
Conditions: not given

Row | IC50 [nM] | SMILES
24 | 12000 | CC(C)(C)c1ccccc1Oc1ncccc1Nc1nc(C(F)(F)F)c(-c2ccccc2)s1
25 | 5200 | CN(C)CC(C)(C)COc1cccc(-c2sc(Nc3cccnc3Oc3ccccc3C(C)(C)C)nc2C(F)(F)F)c1

Biological target: P2Y purinoceptor 1 (Homo sapiens, UniProt P47900)
Assay: Displacement of [beta-33P]-2MeS-ADP from human P2Y1 receptor expressed in HEK293 cells after 1 hr by scintillation counting analysis
Format: cell-based
Conditions: not given

P2Y purinoceptor 1, sequence (P47900 whole entry): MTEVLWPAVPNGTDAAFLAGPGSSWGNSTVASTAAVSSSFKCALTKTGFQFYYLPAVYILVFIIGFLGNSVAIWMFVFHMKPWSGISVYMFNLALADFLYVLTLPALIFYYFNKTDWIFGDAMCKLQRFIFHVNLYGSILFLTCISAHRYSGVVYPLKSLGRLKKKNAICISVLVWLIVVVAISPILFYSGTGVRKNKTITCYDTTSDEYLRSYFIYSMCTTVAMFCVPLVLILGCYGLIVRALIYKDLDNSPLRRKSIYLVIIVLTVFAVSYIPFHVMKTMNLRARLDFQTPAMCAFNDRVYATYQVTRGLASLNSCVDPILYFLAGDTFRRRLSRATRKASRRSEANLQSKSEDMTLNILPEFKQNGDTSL

Row | Ki [nM] | SMILES
26 | 13 | CC(C)(C)c1ccccc1Oc1ncccc1Nc1nc(C(F)(F)F)c(-c2ccc(C#N)cc2)s1
27 | 31 | CC(C)(C)c1ccccc1Oc1ncccc1Nc1nc(C(C)(C)C)c(-c2ccccc2)s1
28 | 186 | CN(C)C(=O)c1nc(Nc2cccnc2Oc2ccccc2C(C)(C)C)sc1-c1ccccc1
29 | 8 | COc1cccc(-c2sc(Nc3cccnc3Oc3ccccc3C(C)(C)C)nc2C(F)(F)F)c1
30 | 7 | CC(C)(C)c1ccccc1Oc1ncccc1Nc1nc(C(F)(F)F)c(-c2ccccc2F)s1
31 | 195 | CC(C)(C)c1ccccc1Oc1ncccc1Nc1nc(C(F)(F)F)c(-c2cccc(O)c2)s1
32 | 7 | CC(C)(C)c1ccccc1Oc1ncccc1Nc1nc(C(F)(F)F)c(-c2ccccc2)s1
33 | 8 | Cc1ccc(-c2sc(Nc3cccnc3Oc3ccccc3C(C)(C)C)nc2C(F)(F)F)cc1
34 | 12 | CCc1nc(Nc2cccnc2Oc2ccccc2C(C)(C)C)sc1-c1ccccc1
35 | 11 | Cc1ccccc1-c1sc(Nc2cccnc2Oc2ccccc2C(C)(C)C)nc1C(F)(F)F
36 | 11 | Cc1sc(Nc2cccnc2Oc2ccccc2C(C)(C)C)nc1C(F)(F)F
37 | 435 | CC(C)(C)c1ccccc1Oc1ncccc1Nc1nc(C(F)(F)F)c(-c2ccccc2O)s1
38 | 12 | CC(C)(C)c1ccccc1Oc1ncccc1Nc1nc(C(F)(F)F)c(-c2ccc(OC(F)(F)F)cc2)s1
39 | 21 | CC(C)(C)c1ccccc1Oc1ncccc1Nc1nc(C(F)(F)F)c(C#N)s1
40 | 4850 | CC(C)(C)c1ccccc1Oc1ncccc1Nc1nc(C(F)(F)F)c(C(N)=O)s1
41 | 12 | CN(C)CC(C)(C)COc1cccc(-c2sc(Nc3cccnc3Oc3ccccc3C(C)(C)C)nc2C(F)(F)F)c1
42 | 5 | CCOC(=O)c1sc(Nc2cccnc2Oc2ccccc2C(C)(C)C)nc1C(F)(F)F
43 | 207 | CC(C)(C)c1ccccc1Oc1ncccc1Nc1nc(C(C)(C)CC(=O)O)c(-c2ccccc2)s1
44 | 8 | COc1ccc(-c2sc(Nc3cccnc3Oc3ccccc3C(C)(C)C)nc2C(F)(F)F)cc1
45 | 6 | Cc1noc(-c2sc(Nc3cccnc3Oc3ccccc3C(C)(C)C)nc2C(F)(F)F)n1
